# Measurements reported in patent US20060069132A1, “Azolecarboxamide herbicides” (priority 2004, published 2006).
# Legend:
# [1] = system: barnyardgrass; experiment: Test B pre-/postemergence herbicide test; type: in vivo, Echinochloa crus-galli
# Procedure, shortened: (§1)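 Pre: seeds sown, then sprayed. Post: 1–4-leaf plants (2–18 cm) sprayed at the same time. Paddy: flooded, treated at 2-leaf stage. Formulation: non-phytotoxic solvent with surfactant. Greenhouse 13–15 days; visual 0–100 score relative to controls.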
# [2] = system: Surinam grass; experiment: Test B pre-/postemergence herbicide test; type: in vivo, Urochloa decumbens
# Procedure, shortened: (§2)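 Response was scored visually 13 to 15 days after treatment against untreated greenhouse controls, 0 meaning no effect and 100 complete control. Formulations (solvent mixture plus surfactant) went onto soil after planting, onto foliage of 1- to 4-leaf plants, and onto 2-leaf plants in a flooded paddy set including rice and barnyardgrass.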
# [3] = system: cocklebur; experiment: Test B pre-/postemergence herbicide test; type: in vivo, Xanthium strumarium
# Procedure, shortened: as §1
# [4] = system: corn; experiment: Test B pre-/postemergence herbicide test; type: in vivo, Zea mays
# Procedure, shortened: as §2
# [5] = system: large crabgrass; experiment: Test B pre-/postemergence herbicide test; type: in vivo, Digitaria sanguinalis
# Procedure, shortened: as §2
# [6] = system: giant foxtail; experiment: Test B pre-/postemergence herbicide test; type: in vivo, Setaria faberi
# Procedure, shortened: as §2
# [7] = system: lambsquarters; experiment: Test B pre-/postemergence herbicide test; type: in vivo, Chenopodium album
# Procedure, shortened: as §2
# [8] = system: morningglory; experiment: Test B pre-/postemergence herbicide test; type: in vivo, Ipomoea coccinea
# Procedure, shortened: as §1
# [9] = system: pigweed; experiment: Test B pre-/postemergence herbicide test; type: in vivo, Amaranthus retroflexus
# Procedure, shortened: as §2
# [10] = system: rice; experiment: Test B pre-/postemergence herbicide test; type: in vivo, Oryza sativa; details: preemergence; for Plant response rating, Rice: 500 g ai/ha, visual rating
# Procedure, shortened: as §2
# [11] = system: velvetleaf; experiment: Test B pre-/postemergence herbicide test; type: in vivo, Abutilon theophrasti
# Procedure, shortened: as §2
# [12] = system: blackgrass; experiment: Test B postemergence herbicide test; type: in vivo, Alopecurus myosuroides
# Procedure, shortened: (§3)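 Read-out: visual comparison with controls, scored 0 to 100, where 100 means complete control and 0 no effect. Formulated chemicals were applied postemergence to plants 2–18 cm tall (1- to 4-leaf), or to flooded-paddy plants at the 2-leaf stage, then held 13 to 15 days under glass.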
# [13] = system: wheat; experiment: Test B postemergence herbicide test; type: in vivo, Triticum aestivum; design: key to Wheat plant response rating: 0 = no effect, 100 = complete control
# Procedure, shortened: (§4)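 Scale 0–100: zero equals no visible effect, 100 complete control, judged by eye relative to controls. Timing: 13 to 15 days in greenhouse post-treatment. Growth stage at spraying: two leaves (paddy) or one to four leaves, 2–18 cm (postemergence).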
# [14] = system: wild oat; experiment: Test B postemergence herbicide test; type: in vivo, Avena fatua
# Procedure, shortened: as §4
# [15] = system: rice; experiment: Test B flooded paddy test; type: in vivo, Oryza sativa; details: 1000 g ai/ha, scale 0 to 100 (0 no effect, 100 complete control)
# Procedure, shortened: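 Postemergence plants were sprayed with formulated test chemicals at 2 to 18 cm height (1- to 4-leaf stage); paddy species were grown to the 2-leaf stage. After 13 to 15 days in a greenhouse, injury was rated visually against untreated controls on a 0–100 scale (0 = no effect, 100 = complete control).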
# [16] = system: small flower umbrella sedge; experiment: Test B flooded paddy test; type: in vivo, Cyperus difformis; details: 1000 g ai/ha, scale 0 to 100 (0 no effect, 100 complete control)
# Procedure, shortened: as §3
# [17] = system: ducksalad; experiment: Test B flooded paddy test; type: in vivo, Heteranthera limosa; details: 1000 g ai/ha, scale 0 to 100 (0 no effect, 100 complete control)
# Procedure, shortened: as §3
# [18] = system: barnyardgrass; experiment: Test B flooded paddy test; type: in vivo, Echinochloa crus-galli; details: 1000 g ai/ha, scale 0 to 100 (0 no effect, 100 complete control)
# Procedure, shortened: as §3
# [19] = 125 g ai/ha; 0 is no effect, 100 is complete control; preemergence
# [20] = 125 g ai/ha; visual rating, scale 0 (no effect) to 100 (complete control); postemergence
# [21] = 500 g ai/ha; visual rating, 0 = no effect, 100 = complete control; preemergence
# [22] = postemergence, 500 g ai/ha; scale 0 to 100, 0 is no effect, 100 is complete control
# [23] = 0 = no effect, 100 = complete control
# [24] = 125 g ai/ha; 0 = no effect, 100 = complete control; preemergence
# [25] = postemergence, 125 g ai/ha; visual rating, scale 0 (no effect) to 100 (complete control)
# [26] = postemergence, 500 g ai/ha; visual rating, scale 0 (no effect) to 100 (complete control)
smiles,measurement,setting,value
CCc1cn(C(C)(C)C)nc1C(=O)Nc1cccc(C(=O)N(C)C)n1 [Compound 330],"Plant response rating (0 to 100 scale), Barnyardgrass",[1]; [19],0
same,Barnyardgrass plant response rating,[1]; [20],0
same,"Plant response rating, Barnyardgrass",[1]; [21],0
same,Barnyardgrass plant response rating,[1]; [22],0
same,"Plant response rating (0 to 100 scale), Surinam Grass",[2]; [19],0
same,Surinam Grass plant response rating,[2]; [20],0
same,"Plant response rating, Surinam Grass",[2]; [21],0
same,Surinam Grass plant response rating,[2]; [22],0
same,"Plant response rating (0 to 100 scale), Cocklebur",[3]; [19],0
same,Cocklebur plant response rating,[3]; [20],0
same,"Plant response rating, Cocklebur",[3]; [21],0
same,Cocklebur plant response rating,[3]; [22],0
same,"Plant response rating (0 to 100 scale), Corn",[4]; [19],0
same,Corn plant response rating,[4]; [20],0
same,"Plant response rating, Corn",[4]; [21],0
same,Corn plant response rating,[4]; [22],0
same,"Plant response rating (0 to 100 scale), Crabgrass, Large",[5]; [19],0
same,"Crabgrass, Large plant response rating",[5]; [20],0
same,"Plant response rating, Crabgrass, Large",[5]; [21],0
same,"Crabgrass, Large plant response rating",[5]; [22],0
same,"Plant response rating (0 to 100 scale), Foxtail, Giant",[6]; [19],0
same,"Foxtail, Giant plant response rating",[6]; [20],0
same,"Plant response rating, Foxtail, Giant",[6]; [21],0
same,"Foxtail, Giant plant response rating",[6]; [22],0
same,"Plant response rating (0 to 100 scale), Lambsquarters",[7]; [19],0
same,Lambsquarters plant response rating,[7]; [20],0
same,"Plant response rating, Lambsquarters",[7]; [21],0
same,Lambsquarters plant response rating,[7]; [22],10
same,"Plant response rating (0 to 100 scale), Morningglory",[8]; [19],0
same,Morningglory plant response rating,[8]; [20],10
same,"Plant response rating, Morningglory",[8]; [21],0
same,Morningglory plant response rating,[8]; [22],10
same,"Plant response rating (0 to 100 scale), Pigweed",[9]; [19],0
same,Pigweed plant response rating,[9]; [20],0
same,"Plant response rating, Pigweed",[9]; [21],0
same,Pigweed plant response rating,[9]; [22],0
same,"Plant response rating (0 to 100 scale), Rice","[10]; 125 g ai/ha, 0 is no effect, 100 is complete control",0
same,"Plant response rating, Rice",[10]; [23],0
same,"Plant response rating (0 to 100 scale), Velvetleaf",[11]; [19],0
same,Velvetleaf plant response rating,[11]; [20],0
same,"Plant response rating, Velvetleaf",[11]; [21],0
same,Velvetleaf plant response rating,[11]; [22],10
same,Blackgrass plant response rating,[12]; [20],0
same,Blackgrass plant response rating,[12]; [22],0
same,Wheat plant response rating,[13]; [20],0
same,Wheat plant response rating,[13]; [22],0
same,"Oat, Wild plant response rating",[14]; [20],0
same,"Oat, Wild plant response rating",[14]; [22],20
same,Rice plant response rating,[15],0
same,"Sedge, Umbrella plant response rating",[16],0
same,Ducksalad plant response rating,[17],0
same,Barnyardgrass plant response rating,[18],0
CCN(C)C(=O)c1cc(NC(=O)c2cc(C(C)(C)C)nn2CC)c(F)cc1F [Compound 254],Barnyardgrass plant response rating (0 to 100 scale),[1]; [24],0
same,"Plant response rating, Barnyardgrass",[1]; [21],40
same,Barnyardgrass plant response rating,[1]; [25],0
same,Barnyardgrass plant response rating,[1]; [26],10
same,Surinam Grass plant response rating (0 to 100 scale),[2]; [24],0
same,"Plant response rating, Surinam Grass",[2]; [21],40
same,Surinam Grass plant response rating,[2]; [25],10
same,Surinam Grass plant response rating,[2]; [22],10
same,Cocklebur plant response rating (0 to 100 scale),[3]; [24],0
same,"Plant response rating, Cocklebur",[3]; [21],0
same,Cocklebur plant response rating,[3]; [25],20
same,Cocklebur plant response rating,[3]; [26],20
same,Corn plant response rating (0 to 100 scale),[4]; [24],0
same,"Plant response rating, Corn",[4]; [21],0
same,Corn plant response rating,[4]; [25],0
same,Corn plant response rating,[4]; [22],10
same,"Crabgrass, Large plant response rating (0 to 100 scale)",[5]; [24],10
same,"Plant response rating, Crabgrass, Large",[5]; [21],100
same,"Crabgrass, Large plant response rating",[5]; [25],10
same,"Crabgrass, Large plant response rating",[5]; [22],10
same,"Foxtail, Giant plant response rating (0 to 100 scale)",[6]; [24],0
same,"Plant response rating, Foxtail, Giant",[6]; [21],30
same,"Foxtail, Giant plant response rating",[6]; [25],0
same,"Foxtail, Giant plant response rating",[6]; [22],0
same,"Plant response rating, Lambsquarters",[7]; [21],100
same,Lambsquarters plant response rating,[7]; [25],10
same,Lambsquarters plant response rating,[7]; [22],20
same,Morningglory plant response rating (0 to 100 scale),[8]; [24],0
same,"Plant response rating, Morningglory",[8]; [21],10
same,Morningglory plant response rating,[8]; [25],20
same,Morningglory plant response rating,[8]; [22],30
same,Pigweed plant response rating (0 to 100 scale),[9]; [24],0
same,"Plant response rating, Pigweed",[9]; [21],100
same,Pigweed plant response rating,[9]; [25],10
same,Pigweed plant response rating,[9]; [22],30
same,Rice plant response rating (0 to 100 scale),"[10]; 125 g ai/ha, 0 = no effect, 100 = complete control",0
same,"Plant response rating, Rice",[10]; [23],20
same,Velvetleaf plant response rating (0 to 100 scale),[11]; [24],0
same,"Plant response rating, Velvetleaf",[11]; [21],20
same,Velvetleaf plant response rating,[11]; [25],10
same,Velvetleaf plant response rating,[11]; [22],10
same,Blackgrass plant response rating,[12]; [25],0
same,Blackgrass plant response rating,[12]; [26],10
same,Wheat plant response rating,[13]; [25],10
same,Wheat plant response rating,[13]; [22],20
same,"Oat, Wild plant response rating",[14]; [25],20
same,"Oat, Wild plant response rating",[14]; [22],20
same,Rice plant response rating,[15],80
same,"Sedge, Umbrella plant response rating",[16],60
same,Ducksalad plant response rating,[17],90
same,Barnyardgrass plant response rating,[18],30
